Assay results reported in ChEMBL document CHEMBL5696442, “Discovery of type II inhibitors of TGFβ-activated kinase 1 (TAK1) and mitogen-activated protein kinase kinase kinase kinase 2 (MAP4K2)” (J Med Chem, 2015).

How the values were obtained:
[1] = biological target: Mitogen-activated protein kinase 10 (Homo sapiens, UniProt P53779); assay: Inhibition of JNK3 Lys2 labeling site in human A-375 cells at 0.5 uM by KiNativ Profiling analysis relative to control; format: cell-based
[2] = biological target: Tyrosine-protein kinase ABL1 (Homo sapiens, UniProt P00519); assay: Inhibition of ABL (unknown origin) ACT labeling site by KiNativ Profiling analysis
Chain of Tyrosine-protein kinase ABL1 (P00519 whole entry): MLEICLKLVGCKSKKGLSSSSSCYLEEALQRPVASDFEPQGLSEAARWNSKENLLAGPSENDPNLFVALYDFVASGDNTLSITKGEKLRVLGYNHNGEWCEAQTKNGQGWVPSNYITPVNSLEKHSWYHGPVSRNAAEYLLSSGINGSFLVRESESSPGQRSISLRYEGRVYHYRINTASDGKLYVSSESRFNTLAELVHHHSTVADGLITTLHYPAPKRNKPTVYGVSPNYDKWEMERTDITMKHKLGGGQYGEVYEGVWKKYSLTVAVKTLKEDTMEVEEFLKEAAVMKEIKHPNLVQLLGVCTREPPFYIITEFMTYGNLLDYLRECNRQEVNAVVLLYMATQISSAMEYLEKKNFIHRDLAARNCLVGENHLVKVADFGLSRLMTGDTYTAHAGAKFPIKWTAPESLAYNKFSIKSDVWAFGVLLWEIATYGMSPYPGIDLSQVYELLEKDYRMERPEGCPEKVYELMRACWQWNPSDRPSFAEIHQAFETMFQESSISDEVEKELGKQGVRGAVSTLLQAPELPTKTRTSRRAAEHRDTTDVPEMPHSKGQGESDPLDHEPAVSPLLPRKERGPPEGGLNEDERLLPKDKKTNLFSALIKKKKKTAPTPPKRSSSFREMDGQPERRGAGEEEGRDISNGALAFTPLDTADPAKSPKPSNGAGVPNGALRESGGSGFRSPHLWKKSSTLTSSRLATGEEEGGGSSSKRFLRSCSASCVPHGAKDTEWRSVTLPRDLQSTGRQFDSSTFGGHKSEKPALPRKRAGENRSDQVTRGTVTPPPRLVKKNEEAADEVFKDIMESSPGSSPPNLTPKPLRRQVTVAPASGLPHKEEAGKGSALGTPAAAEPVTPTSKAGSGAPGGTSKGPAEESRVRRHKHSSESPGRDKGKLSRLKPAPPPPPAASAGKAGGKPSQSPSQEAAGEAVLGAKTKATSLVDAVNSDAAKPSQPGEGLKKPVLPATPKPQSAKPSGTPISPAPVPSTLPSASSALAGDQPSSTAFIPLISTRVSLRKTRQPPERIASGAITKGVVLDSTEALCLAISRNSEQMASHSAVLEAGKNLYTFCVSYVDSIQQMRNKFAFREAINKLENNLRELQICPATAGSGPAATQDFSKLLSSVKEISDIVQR

[3] = biological target: T1, Tyrosine-protein kinase Fer (Homo sapiens, UniProt P16591); assay: Inhibition of FER Lys1 labeling site harbouring DKTSVAVKTCKEDLPQELK in human A-375 cells at 5 uM by KiNativ Profiling analysis relative to control; format: cell-based
T1 sequence (P16591 whole entry, looked up): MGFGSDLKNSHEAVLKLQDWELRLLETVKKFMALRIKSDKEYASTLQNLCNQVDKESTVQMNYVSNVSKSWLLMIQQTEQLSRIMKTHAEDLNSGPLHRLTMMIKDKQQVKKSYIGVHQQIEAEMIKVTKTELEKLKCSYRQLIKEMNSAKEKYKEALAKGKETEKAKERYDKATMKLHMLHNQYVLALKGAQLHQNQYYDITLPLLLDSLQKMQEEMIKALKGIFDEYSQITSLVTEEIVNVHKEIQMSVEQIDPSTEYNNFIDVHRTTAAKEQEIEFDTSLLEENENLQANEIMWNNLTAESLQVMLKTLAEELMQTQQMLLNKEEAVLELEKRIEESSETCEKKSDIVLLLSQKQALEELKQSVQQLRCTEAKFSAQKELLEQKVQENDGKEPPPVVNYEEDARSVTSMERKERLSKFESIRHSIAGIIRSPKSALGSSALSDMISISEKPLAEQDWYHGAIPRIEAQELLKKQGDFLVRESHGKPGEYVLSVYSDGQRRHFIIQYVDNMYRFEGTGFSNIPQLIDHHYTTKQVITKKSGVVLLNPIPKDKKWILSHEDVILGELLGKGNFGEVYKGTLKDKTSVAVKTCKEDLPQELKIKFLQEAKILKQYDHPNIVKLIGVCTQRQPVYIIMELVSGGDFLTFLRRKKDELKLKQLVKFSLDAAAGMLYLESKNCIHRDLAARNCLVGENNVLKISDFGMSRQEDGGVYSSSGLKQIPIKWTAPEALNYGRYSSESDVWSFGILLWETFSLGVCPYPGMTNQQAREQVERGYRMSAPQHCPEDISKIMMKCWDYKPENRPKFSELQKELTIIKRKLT

[4] = biological target: T1, Tyrosine-protein kinase Fer; assay: Inhibition of FER Lys1 labeling site harbouring DKTSVAVKTCKEDLPQELK in human A-375 cells at 0.5 uM by KiNativ Profiling analysis relative to control; format: cell-based
[5] = biological target: T2, Serine/threonine-protein kinase greatwall (Homo sapiens) (UniProt Q96GX5); assay: Inhibition of MASTL ATP Loop labeling site in human A-375 cells at 0.5 uM by KiNativ Profiling analysis relative to control; format: cell-based
T2 sequence (whole entry): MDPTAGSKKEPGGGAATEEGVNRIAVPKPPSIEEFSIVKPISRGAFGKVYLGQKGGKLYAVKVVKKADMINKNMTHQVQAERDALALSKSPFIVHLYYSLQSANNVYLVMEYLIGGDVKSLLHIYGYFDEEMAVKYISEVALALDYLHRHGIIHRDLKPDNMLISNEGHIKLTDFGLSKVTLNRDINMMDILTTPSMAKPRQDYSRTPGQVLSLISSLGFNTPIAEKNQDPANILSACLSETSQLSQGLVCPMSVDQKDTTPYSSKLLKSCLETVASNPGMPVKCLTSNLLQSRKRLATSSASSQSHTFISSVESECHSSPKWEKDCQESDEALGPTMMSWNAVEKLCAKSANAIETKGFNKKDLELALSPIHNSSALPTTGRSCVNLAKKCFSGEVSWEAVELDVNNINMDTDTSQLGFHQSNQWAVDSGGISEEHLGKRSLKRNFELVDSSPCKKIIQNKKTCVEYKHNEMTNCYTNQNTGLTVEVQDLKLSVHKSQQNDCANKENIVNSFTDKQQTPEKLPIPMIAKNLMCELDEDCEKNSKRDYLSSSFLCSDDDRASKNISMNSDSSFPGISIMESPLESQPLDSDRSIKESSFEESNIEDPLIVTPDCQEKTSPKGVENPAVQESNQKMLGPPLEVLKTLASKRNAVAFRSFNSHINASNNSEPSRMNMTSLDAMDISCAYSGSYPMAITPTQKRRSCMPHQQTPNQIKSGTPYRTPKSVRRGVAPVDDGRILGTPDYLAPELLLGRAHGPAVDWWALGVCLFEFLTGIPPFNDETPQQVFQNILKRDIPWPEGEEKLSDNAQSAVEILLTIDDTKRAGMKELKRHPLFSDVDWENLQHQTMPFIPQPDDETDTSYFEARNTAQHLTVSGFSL

[6] = biological target: T3, Serine/threonine-protein kinase TAO2 (Homo sapiens) (UniProt Q9UL54); assay: Inhibition of TAO2 Lys2 labeling site in human A-375 cells at 0.5 uM by KiNativ Profiling analysis relative to control; format: cell-based
T3 sequence (whole entry): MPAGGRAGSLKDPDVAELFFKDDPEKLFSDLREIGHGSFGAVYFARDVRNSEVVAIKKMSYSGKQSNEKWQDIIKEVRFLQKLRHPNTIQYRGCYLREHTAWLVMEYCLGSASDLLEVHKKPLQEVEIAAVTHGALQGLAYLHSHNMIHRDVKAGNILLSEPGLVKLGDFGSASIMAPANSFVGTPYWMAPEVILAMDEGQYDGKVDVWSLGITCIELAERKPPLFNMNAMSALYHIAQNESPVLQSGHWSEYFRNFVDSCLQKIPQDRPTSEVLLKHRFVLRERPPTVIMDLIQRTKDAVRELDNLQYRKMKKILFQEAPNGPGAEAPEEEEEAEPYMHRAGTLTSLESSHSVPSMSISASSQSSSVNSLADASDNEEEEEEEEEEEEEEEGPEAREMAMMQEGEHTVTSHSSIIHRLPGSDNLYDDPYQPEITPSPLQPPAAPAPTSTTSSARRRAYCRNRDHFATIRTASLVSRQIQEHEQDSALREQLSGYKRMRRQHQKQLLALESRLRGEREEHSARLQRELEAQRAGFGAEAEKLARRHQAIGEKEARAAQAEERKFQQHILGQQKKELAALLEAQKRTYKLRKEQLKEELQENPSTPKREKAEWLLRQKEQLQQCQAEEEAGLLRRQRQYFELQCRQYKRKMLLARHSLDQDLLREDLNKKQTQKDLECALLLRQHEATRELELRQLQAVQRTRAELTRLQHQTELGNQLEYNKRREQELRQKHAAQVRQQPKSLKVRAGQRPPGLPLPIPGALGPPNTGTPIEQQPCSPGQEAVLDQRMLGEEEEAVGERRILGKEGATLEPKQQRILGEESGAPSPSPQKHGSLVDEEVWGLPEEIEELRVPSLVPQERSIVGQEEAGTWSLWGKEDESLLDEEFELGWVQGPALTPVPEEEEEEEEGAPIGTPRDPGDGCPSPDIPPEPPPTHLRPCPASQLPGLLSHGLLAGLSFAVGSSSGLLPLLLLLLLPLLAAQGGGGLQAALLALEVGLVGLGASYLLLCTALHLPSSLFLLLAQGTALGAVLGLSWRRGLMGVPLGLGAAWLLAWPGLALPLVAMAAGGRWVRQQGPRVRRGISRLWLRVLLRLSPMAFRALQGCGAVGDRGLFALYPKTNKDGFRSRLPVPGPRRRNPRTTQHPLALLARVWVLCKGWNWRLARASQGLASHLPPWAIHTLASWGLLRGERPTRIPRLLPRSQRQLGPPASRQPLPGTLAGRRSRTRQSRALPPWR

[7] = biological target: T4, Aurora kinase A (Homo sapiens) (UniProt O14965); assay: Inhibition of AurA ATP Loop labeling site in human A-375 cells at 0.05 uM by KiNativ Profiling analysis relative to control; format: cell-based
T4 sequence (whole entry): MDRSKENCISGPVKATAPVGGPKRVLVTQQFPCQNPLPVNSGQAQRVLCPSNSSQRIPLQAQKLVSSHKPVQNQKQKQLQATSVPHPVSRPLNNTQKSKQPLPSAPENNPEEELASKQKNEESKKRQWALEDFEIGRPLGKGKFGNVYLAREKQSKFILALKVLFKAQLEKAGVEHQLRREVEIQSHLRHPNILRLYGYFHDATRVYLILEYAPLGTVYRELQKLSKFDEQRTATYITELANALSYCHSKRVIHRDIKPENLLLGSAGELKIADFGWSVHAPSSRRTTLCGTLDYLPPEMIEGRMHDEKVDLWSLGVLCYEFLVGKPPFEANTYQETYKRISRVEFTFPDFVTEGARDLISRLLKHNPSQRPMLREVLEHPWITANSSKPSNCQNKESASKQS

Chain of Mitogen-activated protein kinase 10 (P53779 whole entry): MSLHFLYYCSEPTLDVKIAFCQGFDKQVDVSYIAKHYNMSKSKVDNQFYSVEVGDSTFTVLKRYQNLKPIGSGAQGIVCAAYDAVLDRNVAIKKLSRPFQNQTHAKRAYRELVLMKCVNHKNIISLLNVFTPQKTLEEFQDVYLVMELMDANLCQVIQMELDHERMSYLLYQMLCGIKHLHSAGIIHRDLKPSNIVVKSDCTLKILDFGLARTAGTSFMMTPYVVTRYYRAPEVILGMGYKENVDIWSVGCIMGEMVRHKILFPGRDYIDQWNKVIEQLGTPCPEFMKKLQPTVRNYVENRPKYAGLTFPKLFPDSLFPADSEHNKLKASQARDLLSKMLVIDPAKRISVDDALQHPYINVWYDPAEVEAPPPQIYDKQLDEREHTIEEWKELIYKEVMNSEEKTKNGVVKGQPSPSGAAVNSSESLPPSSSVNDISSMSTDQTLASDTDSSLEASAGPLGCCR

`CCN1CCN(Cc2ccc(NC(=O)c3ccc(C)c(Oc4ccnc5[nH]ccc45)c3)cc2C(F)(F)F)CC1` showed an inhibition [1] of 73.7%, an IC50 [2] of 75.2 nM and an inhibition [3] of 98.1%. The inhibition [4] was 87%, the inhibition [5] was 11.4% and the inhibition [6] was 42.8%. It also gave an inhibition [7] of 32.5%.
Compound `CCN1CCN(Cc2ccc(NC(=O)c3ccc(C)c(/C=C/c4cnc5[nH]ccc5c4OC)c3)cc2C(F)(F)F)CC1` has an inhibition [1] of 40.6%, an IC50 [2] of 51.5 nM and an inhibition [3] of 80.3%. It also gave an inhibition [4] of 30%, an inhibition [5] of 0.2% and an inhibition [6] of 37.1%. The inhibition [7] was 14.1%.
